The values that follow are results of earlier work, collected in patent publication US20080069909A1, “MENOPAUSE DISORDER SYNERGISTIC PHYTO-NUTRACEUTICAL COMPOSITION” (priority 2006, published 2008).

Data set [1] relates to bacterial resistance mechanism (multidrug pump).
In a further data set the target is beta-estrogenic receptor (Homo sapiens, UniProt Q92731).

Read-outs that look alike come from different tables or passages of the source.

Sequence of beta-estrogenic receptor (Q92731 whole entry): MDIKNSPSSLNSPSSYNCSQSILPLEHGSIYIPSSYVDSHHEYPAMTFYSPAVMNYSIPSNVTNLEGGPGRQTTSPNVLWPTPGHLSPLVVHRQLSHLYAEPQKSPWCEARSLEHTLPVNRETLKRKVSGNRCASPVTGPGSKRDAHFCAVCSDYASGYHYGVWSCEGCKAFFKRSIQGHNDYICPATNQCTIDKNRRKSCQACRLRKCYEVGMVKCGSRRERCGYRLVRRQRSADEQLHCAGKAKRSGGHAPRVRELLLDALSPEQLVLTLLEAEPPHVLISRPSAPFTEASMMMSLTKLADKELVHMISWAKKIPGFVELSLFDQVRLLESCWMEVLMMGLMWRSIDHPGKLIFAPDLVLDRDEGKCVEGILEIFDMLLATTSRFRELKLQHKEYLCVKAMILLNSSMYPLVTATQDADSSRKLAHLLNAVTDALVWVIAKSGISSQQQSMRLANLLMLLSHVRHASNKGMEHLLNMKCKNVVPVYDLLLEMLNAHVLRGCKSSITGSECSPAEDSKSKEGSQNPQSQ

As for `COc1cc([C@H]2Oc3cc(-c4cc(=O)c5c(O)cc(O)cc5o4)cc(OC)c3O[C@@H]2CO)ccc1O` (racemic) [5′-MHC, 5′-methoxyhydnocarpin], the “activity of herbal Berberine alkaloids” value in data set [1] (by the action of 5′-MHC) is “strongly potentiated”. In addition, the “accumulation of berberine in the cells” value in data set [1] (in the presence of 5′-MHC) is on record as “strong increase”. Take `CCCCC/C=C\C/C=C\CCCCCCCC(=O)O` [Linoleic acid]: the “binding to estrogen receptors” value in the data set on estrogen receptors was “can bind to estrogen receptors”. In the data set with estrogen inducible genes, the “induction of estrogen inducible genes” value is given as “induce certain estrogen inducible genes”. For `COc1cc2oc(-c3ccc(O)cc3)c(OC)c(=O)c2c(O)c1OC` [Penduletin], the receptor ligand result on beta-estrogenic receptor was “specific ligands”. On to `O=c1c(-c2ccc(O)cc2)coc2c([C@@H]3O[C@H](CO)[C@@H](O)[C@H](O)[C@H]3O)c(O)ccc12` [puerarin], for which the estrogen-like effect result is “weak estrogen-like effect” with estrogen receptor (estrogen-deficiency animals), “antiestrogen-like effect” in the data set with estrogen receptor (high-estrogen-level animals) and “no effect” in the data set on estrogen receptor (normal-estrogen level animals). Regarding `O=c1cc(-c2ccc(O)cc2)oc2cc(O)cc(O)c12` [apigenin], on beta-estrogenic receptor, the receptor ligand result is given as “specific ligands”.
